Usually Ki stands for a dissociation constant, usually derived from enzyme kinetics or from competition with a known ligand.

Read-outs that look alike come from different tables or passages of the source.

For eleven compounds, Ki results are on record in patent US12286435B2, “Compound having benzo seven-membered ring structure, preparation method therefor, and use thereof” (BIONNA (BEIJING) MEDICAL TECHNOLOGY CO., LTD., priority 2019, dated 2025).

Assay [1] concerns the target BRD4 BD1 protein (Homo sapiens (Human), UniProt O60885). In words: Fluorescence polarization binding affinity (Ki) with BRD4 BD1 protein.
For assay [2], the target named is BRD4 BD2 protein (Homo sapiens (Human), UniProt O60885). In words: Fluorescence polarization binding affinity (Ki) with BRD4 BD2 protein.
[3] abbreviates: fluorescence polarization, Ki calculated from IC50.

Regarding `Cc1nnn2c1-c1ccc(-c3cnn(C)c3)cc1C(Nc1ccccc1Cl)CC2` (stereo not shown) [LC191, N-(2-chlorophenyl)-1-methyl-9-(1-methyl-1H-pyrazol-4-yl)-6,7-dihydro-5H-benzo[c][1,2,3]triazolo[1,5-a]azepin-7-amine], the Ki in assay [1] (setting [3]) was 51.8 nM; in assay [2] (setting [3]) it was 11.2 nM.

For `Cc1nnn2c1-c1ccc(C3=CCNCC3)cc1C(Nc1ccc(F)c(Cl)c1)CC2` (stereo not shown) [LC192, N-(3-chloro-4-fluorophenyl)-1-methyl-9-(1,2,3,6-tetrahydropyridin-4-yl)-6,7-dihydro-5H-benzo[c][1,2,3]triazolo[1,5-a]azepin-7-amine 2,2,2-trifluoroacetate], the inhibition constant Ki in assay [1] (setting [3]) was 819 nM; in assay [2] (setting [3]), 56.6 nM.

Consider `Cc1nnn2c1-c1ccc(C3=CCNCC3)cc1C(N(C=O)c1cccc(Cl)c1)CC2` (stereo not shown) [LC193, N-(3-chlorophenyl)-N-(1-methyl-9-(1,2,3,6-tetrahydropyridin-4-yl)-6,7-dihydro-5H-benzo[c][1,2,3]triazolo[1,5-a]azepin-7-yl)formamide 2,2,2-trifluoroacetate], for which the Ki in assay [1] (setting [3]) is greater than 4000 nM; in assay [2] (setting [3]), 698 nM.

In the case of `Cc1nnn2c1-c1ccc(C3=CCNCC3)cc1C(Nc1cc(Cl)ccc1F)CC2` (stereo not shown) [LD08, N-(5-chloro-2-fluorophenyl)-1-methyl-9-(1,2,3,6-tetrahydropyridin-4-yl)-6,7-dihydro-5H-benzo[c][1,2,3]triazolo[1,5-a]azepin-7-amine 2,2,2-trifluoroacetate], the Ki is 1270 nM in assay [1] (setting [3]) and 62.3 nM in assay [2] (setting [3]).

As to `CC(=O)N1CC=C(c2ccc3c(c2)C(N(C(C)=O)c2cccc(Cl)c2)CCn2nnc(C)c2-3)CC1` (stereo not shown) [LD13], the Ki worked out at 944 nM in assay [1] and 1740 nM in assay [2].

Regarding `CCC(=O)N1CC=C(c2ccc3c(c2)C(Nc2ccc(Cl)cc2)CCn2nnc(C)c2-3)CC1` (stereo not shown) [LD14, 1-(4-(7-((4-chlorophenyl)amino)-1-methyl-6,7-dihydro-5H-benzo[c][1,2,3]triazolo[1,5-a]azepin-9-yl)-3,6-dihydropyridin-1(2H)-yl)propan-1-one], the Ki is 14.3 nM in assay [1] (setting [3]) and 6.14 nM in assay [2] (setting [3]).

Turning to `CCC(C)N1CC=C(c2ccc3c(c2)C(Nc2ccc(Cl)cc2)CCn2nnc(C)c2-3)CC1` (stereo not shown) [LD17, 9-(1-(sec-butyl)-1,2,3,6-tetrahydropyridin-4-yl)-N-(4-chlorophenyl)-1-methyl-6,7-dihydro-5H-benzo[c][1,2,3]triazolo[1,5-a]azepin-7-amine 2,2,2-trifluoroacetate], the Ki in assay [1] (setting [3]) is 616 nM; in assay [2] (setting [3]) it was 51 nM.

`Cc1nnn2c1-c1ccc(C3=CCNCC3)cc1C(Nc1cccc(CC#N)c1)CC2` (stereo not shown) [RC71, 2-(3-((1-methyl-9-(1,2,3,6-tetrahydropyridin-4-yl)-6,7-dihydro-5H-benzo[c][1,2,3]triazolo[1,5-a]azepin-7-yl)amino)phenyl)acetonitrile 2,2,2-trifluoroacetate]: the Ki in assay [1] (setting [3]) is 1040 nM; in assay [2] (setting [3]), 52.5 nM.

With `Cc1nnn2c1-c1ccc(C3=CCNCC3)cc1C(Nc1ccc(CC#N)cc1)CC2` (stereo not shown) [RC73, 2-(4-((1-methyl-9-(1,2,3,6-tetrahydropyridin-4-yl)-6,7-dihydro-5H-benzo[c][1,2,3]triazolo[1,5-a]azepin-7-yl)amino)phenyl)acetonitrile 2,2,2-trifluoroacetate], the values for the Ki in assay [1] (setting [3]) and in assay [2] (setting [3]) were 2370 nM and 139 nM, respectively.

As to `Cc1nnn2c1-c1ccc(C3=CCNCC3)cc1C(Nc1ccccc1CC#N)CC2` (stereo not shown) [RC82, 2-(2-((1-methyl-9-(1,2,3,6-tetrahydropyridin-4-yl)-6,7-dihydro-5H-benzo[c][1,2,3]triazolo[1,5-a]azepin-7-yl)amino)phenyl) acetonitrile 2,2,2-trifluoroacetate], the Ki in assay [1] (setting [3]) was 2370 nM; in assay [2] (setting [3]), 1520 nM.

For the compound `Cc1nnn2c1-c1ccc(C3=CCNCC3)cc1C(Nc1ccccc1C#N)CC2` (stereo not shown) [RC116, 2-((1-methyl-9-(1,2,3,6-tetrahydropyridin-4-yl)-6,7-dihydro-5H-benzo[c][1,2,3]triazolo[1,5-a]azepin-7-yl)amino)benzonitrile 2,2,2-trifluoroacetate], the Ki is 1000 nM in assay [1] (setting [3]) and 115 nM in assay [2] (setting [3]).
